# Test results from US5231107A, “Derivatives of the oxime of 1,2,5,6-tetrahydropyridine 3-carboxaldehyde, the process for their preparation, their use as medicaments and the compositions containing them” (priority 1987, dated 1993).
# Like-named read-outs stand apart in the source and are kept apart here.
# Assays:
# [1] = test system: ileum isolated from guinea-pig; assay: Test of ileum isolated from guinea-pig; settings: Cavia porcellus, agonist activity, Tyrode solution, 37° C., read-out: pD2 (negative logarithm of the dose which produces 50% of the maximum effect) (converted)
# Method: Pieces of ileum are removed from guinea-pigs killed by decapitation. The isolated ileum is placed in 10 cm^3 of Tyrode solution at 37° C. and aerated with a mixture of oxygen (95%) and carbon dioxide gas (5%). The contractions due to the products are registered by means of a detector connected to a polygraph. […].
# The possible antagonist activity of the products is tested vis-a-vis acetylcholine.
# The agonist activity is expressed in pD2 (negative logarithm of the dose which produces 50% of the maximum effect).
# The antagonist activity is expressed in DE50 (dose reducing by 50% the maximum response induced by acetylcholine).
# in vivo [2] = assay: in vivo; design: species or system male mice (CD1 Charles Rivers); settings: oral route, male CD1 mice, method of Miller and Tainter; for ED50: mouse, in vivo, read-out: DE50 (dose which causes diarrhoea in 50% of the animals)
# Method: The test is carried out on male mice (CD1 Charles Rivers) weighing 25 to 30 g, which have fasted for 6 hours. The product dissolved at 5% in methocel is administered by oral route by means of an oesophage probe.
# Control animals receive only the excipient.
# After treatment, the animals are placed separately in cages of which the base is covered with blotting paper, and they are put under observation for 30, 60, 120 and 180 minutes.
# The sheets of absorbent paper are changed after each observation.
# The consistency of the feces is evaluated according to the method of Randall and Baruth (Arch. Int. Pharmacodyn. 220, 94, 1976) according to the following scale of values.
# 1: feces slightly soft, with or without a damp halo,
# 2: feces slightly soft, with a well-defined circle of humidity,
# 3: feces soft with a large circle of humidity,
# 4: feces without consistency with a very large circle of humidity.
# For each product, the dose is noted which causes diarrhoea in 50% of the animals according to the method of Miller and Tainter (Proc. Soc. Exp. Biol. Med., 57, 261, 1944).
# Hypothermic activity = format: in vivo, male mice (CD1 Charles Rivers); settings: Mus musculus, read-out: Effective dose (-1° C.)
# Method: (§1) The test is carried out on male mice (CD1 Charles Rivers) weighing 25-30 g, which have fasted for 6 hours.
# The temperature of the body is noted by means of a thermocouple inserted about 1.5 cm in the rectum and connected to an electric temperature recorder.
# The products are administered by oral or sub-cutaneous route and the temperatures are noted at the instant 0 and at 30 minutes, 1 hour, 2 hours and 2-and-a-half hours after treatment.
# The degree of hypothermia is evaluated as the difference between the treated animals and the controls, and the dose necessary to reduce the body temperature by 1° C. is noted.
# [3] = test system: central cholinergic system; settings: in vivo; cited from earlier work
# [4] = intravenous route; cited from earlier work
# in vivo [5] = settings: mouse, po
# Method: The test was carried out on male mice (CD1 Charles Rivers), of 22 to 24 g, without food for 16 hours. […] The mortality is noted during the 7 days following the treatment.
# [6] = Variation of the body temperature (duration of action); format: in vivo, male mice (CD1 Charles Rivers)
# Method: as §1
# The temperature of the body is noted by means of a thermocouple inserted about 1.5 cm in the rectum and connected to an electric temperature recorder. […]
# The duration of action of the products is determined, using the doses able to reduce the temperature by 1° to 1.5° C.
smiles,measurement,setting,value
"COC(=O)C1=CCCN(C)C1 [Arecoline, arecoline, reference compound]",EC50,[1],0.331 µM
same,DE50 (dose which causes diarrhoea in 50% of the animals),in vivo [2],35 mg/kg
same,ED (-1 C),Hypothermic activity; oral route (O.R.),194 mg/kg
same,ED (-1 C),Hypothermic activity; sub-cutaneous route (SC.R),3 mg/kg
same,duration of action of arecoline,[3],short duration of action
same,effect on patients having a memory defect,[4],positive effect
"C=CCOC(=O)N1CCC=C(C=NOC)C1 [Example 4, Methyl ether of 1-allyloxycarbonyl-1,2,5,6-tetrahydropyridin-3-carboxaldehyde oxime]",LD50 at 168 h,in vivo [5],175 mg/kg
same,EC50,[1],> 100 µM
same,ED50,in vivo [2],3 mg/kg
same,ED (-1 C),Hypothermic activity; oral route (O.R.),1.6 mg/kg
same,ED (-1 C),Hypothermic activity; sub-cutaneous route (SC.R),1.8 mg/kg
same,Variations of the body temperature,"[6]; 2. mg/kg os, 0 min",-0.1 °C
same,Variations of the body temperature,"[6]; 2. mg/kg os, 30 min",-1.2 °C
same,Variations of the body temperature,"[6]; 2. mg/kg os, 60 min",-1.1 °C
same,Variations of the body temperature,"[6]; 2. mg/kg os, 120 min",-0.1 °C
same,Variations of the body temperature,"[6]; 2. mg/kg os, 180 min",-0.1 °C
same,Variations of the body temperature,"[6]; 2. mg/kg sc, 0 min",-0.1 °C
same,Variations of the body temperature,"[6]; 2. mg/kg sc, 30 min",-0.9 °C
same,Variations of the body temperature,"[6]; 2. mg/kg sc, 60 min",-1.0 °C
same,Variations of the body temperature,"[6]; 2. mg/kg sc, 120 min",-0.2 °C
same,Variations of the body temperature,"[6]; 2. mg/kg sc, 180 min",-0.1 °C
"CON=CC1=CCCN(C(=O)Oc2ccccc2)C1 [Example 6, Methyl ether of 1-phenyloxycarbonyl-1,2,5,6-tetrahydropyridin-3-carboxaldehyde oxime]",LD50 at 168 h,in vivo [5],500 mg/kg
same,EC50,[1],> 100 µM
same,ED50,in vivo [2],100 mg/kg
same,ED (-1 C),Hypothermic activity; oral route (O.R.),4.6 mg/kg
same,ED (-1 C),Hypothermic activity; sub-cutaneous route (SC.R),2.3 mg/kg
same,Variations of the body temperature,"[6]; 3.5 mg/kg sc, 0 min",-0.1 °C
same,Variations of the body temperature,"[6]; 3.5 mg/kg sc, 30 min",-0.6 °C
same,Variations of the body temperature,"[6]; 3.5 mg/kg sc, 60 min",-1.4 °C
same,Variations of the body temperature,"[6]; 3.5 mg/kg sc, 120 min",-0.9 °C
same,Variations of the body temperature,"[6]; 3.5 mg/kg sc, 180 min",0.1 °C
same,Variations of the body temperature,"[6]; 7.5 mg/kg os, 0 min",-0.1 °C
same,Variations of the body temperature,"[6]; 7.5 mg/kg os, 30 min",-1.1 °C
same,Variations of the body temperature,"[6]; 7.5 mg/kg os, 60 min",-1.6 °C
same,Variations of the body temperature,"[6]; 7.5 mg/kg os, 120 min",-0.6 °C
"CON=CC1=CCCN(C(=O)Oc2ccc(Cl)cc2)C1 [Example 12, Methyl ether of 1-parachlorophenyloxy-carbonyl-1,2,5,6-tetrahydropyridin-3-carboxaldehyde oxime]",LD50 at 168 h,in vivo [5],> 1000 mg/kg
same,EC50,[1],> 100 µM
same,ED50,in vivo [2],> 50 mg/kg
same,ED (-1 C),Hypothermic activity; oral route (O.R.),2.2 mg/kg
same,ED (-1 C),Hypothermic activity; sub-cutaneous route (SC.R),2.9 mg/kg
same,Variations of the body temperature,"[6]; 3.12 mg/kg os, 0 min",+0.1 °C
same,Variations of the body temperature,"[6]; 3.12 mg/kg os, 30 min",-0.9 °C
same,Variations of the body temperature,"[6]; 3.12 mg/kg os, 60 min",-1.4 °C
same,Variations of the body temperature,"[6]; 3.12 mg/kg os, 120 min",-0.3 °C
same,Variations of the body temperature,"[6]; 3.12 mg/kg sc, 0 min",-0.1 °C
same,Variations of the body temperature,"[6]; 3.12 mg/kg sc, 30 min",-0.1 °C
same,Variations of the body temperature,"[6]; 3.12 mg/kg sc, 60 min",-1.1 °C
same,Variations of the body temperature,"[6]; 3.12 mg/kg sc, 120 min",-1.2 °C
same,Variations of the body temperature,"[6]; 3.12 mg/kg sc, 180 min",-0.5 °C
"CON=CC1=CCCN(C(=O)Oc2ccc(C(C)C)cc2)C1 [Example 13, Methyl ether of 1-p-isopropylphenyloxycarbonyl-1,2,5,6-tetrahydropyridin-3-carboxaldehyde oxime]",LD50 at 168 h,in vivo [5],> 1000 mg/kg
same,EC50,[1],> 100 µM
same,ED50,in vivo [2],> 50 mg/kg
same,ED (-1 C),Hypothermic activity; oral route (O.R.),3.4 mg/kg
same,ED (-1 C),Hypothermic activity; sub-cutaneous route (SC.R),8.8 mg/kg
same,Variations of the body temperature,"[6]; 6.25 mg/kg os, 0 min",+0.2 °C
same,Variations of the body temperature,"[6]; 6.25 mg/kg os, 30 min",-0.4 °C
same,Variations of the body temperature,"[6]; 6.25 mg/kg os, 60 min",-1.6 °C
same,Variations of the body temperature,"[6]; 6.25 mg/kg os, 120 min",-0.4 °C
same,Variations of the body temperature,"[6]; 6.25 mg/kg os, 180 min",-0.1 °C
same,Variations of the body temperature,"[6]; 12.5 mg/kg sc, 0 min",+0.2 °C
same,Variations of the body temperature,"[6]; 12.5 mg/kg sc, 60 min",-0.7 °C
same,Variations of the body temperature,"[6]; 12.5 mg/kg sc, 120 min",-1.4 °C
same,Variations of the body temperature,"[6]; 12.5 mg/kg sc, 180 min",-1.1 °C
CON=CC1=CCCN(C(=O)Oc2ccc(OC)c(OC)c2)C1 [Example 14],LD50 at 168 h,in vivo [5],175 mg/kg
same,EC50,[1],> 100 µM
same,ED50,in vivo [2],> 50 mg/kg
same,ED (-1 C),Hypothermic activity; oral route (O.R.),0.7 mg/kg
same,ED (-1 C),Hypothermic activity; sub-cutaneous route (SC.R),0.7 mg/kg
same,Variations of the body temperature,"[6]; 1. mg/kg os, 0 min",+0.1 °C
same,Variations of the body temperature,"[6]; 1. mg/kg os, 30 min",-1.1 °C
same,Variations of the body temperature,"[6]; 1. mg/kg os, 60 min",-1.4 °C
same,Variations of the body temperature,"[6]; 1. mg/kg os, 120 min",-0.2 °C
same,Variations of the body temperature,"[6]; 1. mg/kg os, 180 min",+0.1 °C
same,Variations of the body temperature,"[6]; 1. mg/kg sc, 0 min",+0.2 °C
same,Variations of the body temperature,"[6]; 1. mg/kg sc, 30 min",-0.7 °C
same,Variations of the body temperature,"[6]; 1. mg/kg sc, 60 min",-1.3 °C
same,Variations of the body temperature,"[6]; 1. mg/kg sc, 120 min",-0.5 °C
